These results are taken from patent US20230203041A1, “ANTAGONISTS OF THE ADENOSINE A2A RECEPTOR” (AdoRx Therapeutics Limited, priority 2020, published 2023).

For data set [1] the following is noted: clinical trials, preliminary data, cited from earlier work.
Data set [2] deals with T1, human Adenosine A2a receptor (Homo sapiens, UniProt P29274).
T1 construct: expressed in transfected cells; host or cells: CHO cell membranes
Briefly: Adenosine receptor TR-FRET binding assay (CA200645 displacement), A2a. Particulars: 100 nM CA200645, CHO cell membranes, 2 hours at room temperature.

Data set [3] addresses T2, human Adenosine A2b receptor (Homo sapiens, UniProt P29275).
T2 construct: expressed in transfected cells; host or cells: CHO cell membranes
T2 sequence (P29275 1-332): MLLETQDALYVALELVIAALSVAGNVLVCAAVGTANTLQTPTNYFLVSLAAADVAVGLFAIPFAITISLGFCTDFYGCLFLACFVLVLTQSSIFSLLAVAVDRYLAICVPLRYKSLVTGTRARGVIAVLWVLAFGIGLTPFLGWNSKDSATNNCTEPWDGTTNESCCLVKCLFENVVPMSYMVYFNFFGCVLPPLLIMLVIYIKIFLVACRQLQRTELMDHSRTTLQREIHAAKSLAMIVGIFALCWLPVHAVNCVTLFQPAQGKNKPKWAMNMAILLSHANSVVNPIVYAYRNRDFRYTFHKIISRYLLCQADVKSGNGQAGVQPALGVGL
Put plainly: Adenosine receptor TR-FRET binding assay (CA200645 displacement), A2b. The conditions noted are these: 30 nM CA200645, CHO cell membranes, 2 hours at room temperature.

In data set [4] the test system is human PBMCs. Briefly: CD3/CD28 stimulated IL-2 release NECA reversal assay in human PBMCs.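 Further: dose-response as % inhibition where 100% equals no-NECA control wells with CD3/CD28.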 Particulars: PBMC, CD3/CD28 antibody stimulated, 1 uM NECA, 24 hours, IL-2 in culture supernatant. It is filed as cell-based. Put shortly:
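PBMCs from citrated donor blood, 50,000 cells/well on plate-bound CD3 antibody (1 ug/ml), with 1 ug/ml CD28 antibody, 1 uM NECA and antagonist at 0.003-10 μM final. After 24 h at 37° C, supernatant IL-2 was measured by MSD immunoassay.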

Data set [5] concerns the target T3, human Adenosine A3 receptor (Homo sapiens, UniProt P0DMS8).
T3 sequence (P0DMS8 1-318): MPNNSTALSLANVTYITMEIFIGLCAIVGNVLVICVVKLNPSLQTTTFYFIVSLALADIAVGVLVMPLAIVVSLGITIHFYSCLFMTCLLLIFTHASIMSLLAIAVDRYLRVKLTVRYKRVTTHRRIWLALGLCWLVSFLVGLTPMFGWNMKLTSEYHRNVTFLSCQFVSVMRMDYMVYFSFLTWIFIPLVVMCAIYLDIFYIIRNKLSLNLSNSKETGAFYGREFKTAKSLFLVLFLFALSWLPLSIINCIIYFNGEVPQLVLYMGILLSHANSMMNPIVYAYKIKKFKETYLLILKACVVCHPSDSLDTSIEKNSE
Briefly: Adenosine receptor TR-FRET binding assay (CA200645 displacement), A3.
Protocol: All FRET binding experiments were conducted at room temperature in white 384-well plates, in assay binding buffer containing 1×LabMed (Cisbio, France), 100 μg/mL saponin, 1% DMSO and 0.02% pluronic acid. Binding of the fluorescently labelled Adenosine receptor antagonist XAC (CA200645, FRET acceptor) to terbium-labelled A1, A2a, A2b and A3 adenosine receptors (FRET donors) was detected by time-resolved FRET due to the close proximity of the donor and acceptor in a binding event. To investigate the ability of unlabelled test compounds to bind to Adenosine A1, A2a, A2b and A3 receptors, dose response curves were constructed that determined the ability of a range of concentrations to inhibit the binding of 30 nM CA200645 to the A2b receptor and 100 nM CA200645 to the A1, A2a, and A3 receptor.
Serial dilution (1:3 dilutions) of test compounds in neat DMSO and transfer of a 400 nL sample of test compound into the assay plate was carried out using the Mosquito (TTP Labtech, UK). The compound samples were incubated for 2 hours at room temperature with a fixed concentration of CA200645 defined for each receptor (see above) and CHO cell membranes containing the human Adenosine A1 (0.5 μg/well), A2a (0.3 μg/well), A2b (1 μg/well) or A3 (1 μg/well) receptor in 40 μL of assay buffer. Total and non-specific binding of CA200645 was determined in the absence and presence of 10 μM XAC, respectively. Following 2 hours incubation, the level of CA200645 binding was detected on a Pherastar FSX (BMG Labtech, Germany) using standard TR-FRET settings. The terbium donor was excited with three laser flashes at a wavelength of 337 nm, and donor and acceptor emission was detected at 620 nm and 665 nm wavelengths, respectively. FRET ratios were obtained by multiplying the acceptor/donor ratio value by 10,000. Specific binding was determined by subtracting the non-specific binding FRET ratio from the total binding FRET ratio. Compound IC50 curves were analysed using GraphPad Prism 7.0 (GraphPad, USA) and Ki affinity values were determined from the obtained IC50 values using the method of Cheng and Prusoff.

Data set [6] has as its system CD8+ T cells in human whole blood. Put plainly: Measurement of pCREB in CD8+ T cells in human whole blood. Format: cell-based. The conditions noted are these: T-cell, 1 h; heparinised human whole blood, rolipram, 3 μM NECA, 60 min, phospho-CREB in CD8+ T cells by FACS. Put shortly:
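Heparinised human whole blood preincubated 20 min at 37 °C with serially diluted A2a antagonists plus rolipram, then stimulated 60 min with 3 μM NECA (final). After fixation and RBC lysis, permeabilized leukocytes stained for phospho-CREB and CD8; pCREB in CD8+ T cells read by flow cytometry.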
For orientation: Flow cytometry measures light scatter and fluorescence of single cells or particles in a stream.

In data set [7] the target is T4, human Adenosine A1 receptor (Homo sapiens, UniProt P30542).
T4 sequence (P30542 1-326): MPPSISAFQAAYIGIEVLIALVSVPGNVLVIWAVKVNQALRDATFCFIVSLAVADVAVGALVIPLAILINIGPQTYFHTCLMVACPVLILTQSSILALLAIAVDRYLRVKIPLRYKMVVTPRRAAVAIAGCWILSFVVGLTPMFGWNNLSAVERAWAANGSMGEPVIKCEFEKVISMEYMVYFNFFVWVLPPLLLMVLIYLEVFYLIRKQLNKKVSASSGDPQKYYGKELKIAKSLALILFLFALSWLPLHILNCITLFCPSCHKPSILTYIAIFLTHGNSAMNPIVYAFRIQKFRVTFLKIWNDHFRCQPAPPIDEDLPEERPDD
Briefly: Adenosine receptor TR-FRET binding assay (CA200645 displacement), A1.

For data set [8], the system named is solid tumors. The conditions noted are these: Rutkowski et al. 2019; cited from earlier work.
In data set [9] the target is programmed death receptor-1 (PD-1) (Homo sapiens, UniProt Q15116). The conditions noted are these: cited from earlier work.
Sequence of programmed death receptor-1 (PD-1) (Q15116 25-288): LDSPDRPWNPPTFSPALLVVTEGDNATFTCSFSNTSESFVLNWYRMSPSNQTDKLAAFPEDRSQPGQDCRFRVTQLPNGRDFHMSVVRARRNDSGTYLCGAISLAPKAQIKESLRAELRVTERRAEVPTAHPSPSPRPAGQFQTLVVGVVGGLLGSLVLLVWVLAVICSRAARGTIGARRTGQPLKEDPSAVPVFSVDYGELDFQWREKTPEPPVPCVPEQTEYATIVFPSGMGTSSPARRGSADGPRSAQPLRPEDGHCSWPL

T1 sequence (P29274 whole entry): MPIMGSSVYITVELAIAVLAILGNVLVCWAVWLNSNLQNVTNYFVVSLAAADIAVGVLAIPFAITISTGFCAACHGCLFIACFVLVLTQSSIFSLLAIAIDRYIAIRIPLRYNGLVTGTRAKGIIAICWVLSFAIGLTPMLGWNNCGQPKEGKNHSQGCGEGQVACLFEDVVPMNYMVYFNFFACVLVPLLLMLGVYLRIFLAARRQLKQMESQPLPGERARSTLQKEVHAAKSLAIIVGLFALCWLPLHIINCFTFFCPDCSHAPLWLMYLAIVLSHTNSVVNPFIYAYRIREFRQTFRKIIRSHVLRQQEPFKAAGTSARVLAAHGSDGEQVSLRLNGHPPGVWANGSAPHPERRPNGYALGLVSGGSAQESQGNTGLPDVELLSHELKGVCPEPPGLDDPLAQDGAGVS

With `Cc1ccc(-c2nc(N)nc3c2nnn3Cc2cccc(CO[C@H]3CCOC3)n2)o1` [CPI-444], in data set [1] (monotherapy and combination with atezolizumab), the tolerability result is given as “well tolerated”. In addition, in data set [1] (early indications), the “CD8+ T infiltration into tumour tissue” value is given as “enhancing CD8+ T infiltration into tumour tissue” and the tumour size entry was “reducing tumour size”.

For the compound `CC(=O)N1CCC(Nc2ccn3nc(-c4cccc(C#N)c4)c(-c4cc(C)nc(C)c4)c3n2)CC1` [Example 105.1, 3-[5-[(1-Acetyl-4-piperidyl)amino]-3-(2,6-dimethyl-4-pyridyl)pyrazolo[1,5-a]pyrimidin-2-yl]benzonitrile], the Ki – broadly, the equilibrium dissociation constant of an inhibitor or competing ligand from its target – in [2] was 8 nM; in data set [3], 50 nM; in data set [5], above 1000 nM; in [7], 692 nM. Also, the half-inhibitory concentration (IC50) (as a rule, the concentration needed to halve the response being measured) in data set [4] was found to be 33 nM; in [6], 890 nM.

In the case of “Cetrelimab: a fully human immunoglobulin (Ig) G4 kappa monoclonal antibody that binds to programmed death receptor-1 (PD-1) with high affinity and specificity”, the “activity in solid tumors” value in data set [8] was “activity in solid tumors”. The “binding to PD-1” value in data set [9] is “high affinity and specificity”.
